One data set deals with K562 cells. As to the kind of experiment: Sulphorhodamine B (SRB) assay, K562. The following applies: K562, 6 days. The format is cell-based. On the procedure:
(§1) Cells of the types described above were seeded in wells of a 96-well plate at a number optimised for each cell line.
(§2) A fixed concentration of AS1411 (either 1 μM or 2.5 μM) was added with varying concentrations of doxorubicin (ranging between 0.12 nM and 30667.0 nM) and cells were incubated for 6 days. A control was run with varying amounts of AS1411 without Doxorubicin. A second control series was run with the varying amounts of Doxorubicin but with no AS1411 present.
(§3) Cells were then washed, fixed to the 96-well plate with 16% TCA and exposed to the dye Sulphorhodamine B (SRB; available from Sigma-Aldrich, Dorset, UK; catalogue number S-1402). The optical density of the remaining cell mass after exposure to AS1411 was measured in a microplate spectrophotometer and IC50 determined.
(§4) The experiments were run in duplicate and the mean optical density calculated.
(§5) Combination index (CI) is determined using Calcusyn software (Biosoft, Cambridge UK) which employs the method of Chou, T.-C. and Talalay, P (See, Chou et al, Adv. Enz. Regul. 22: 27-55, 1984; and Chou, T.-C., Pharmacological Reviews 58:621-681, 2006.).
On the technique in general: In SRB staining, fixed cells bind dye roughly in proportion to their protein.

The next data set deals with Raji cells. Briefly: Sulphorhodamine B (SRB) assay, Raji. The format is cell-based, human. On the procedure:
as §1, §2, §3, §4, §5

Another data set has as its system Namalwa cells. Briefly: Sulphorhodamine B (SRB) assay, Namalwa. The format is cell-based, human. The procedure: as §1, §2, §3, §4, §5
The next data set relates to Daudi cells. Briefly: Sulphorhodamine B (SRB) assay, Daudi. The format is cell-based, human. On the procedure:
as §1, §2, §3, §4, §5

Another data set has as its system MV411 cells. Briefly: Sulphorhodamine B (SRB) assay, MV411. The format is cell-based. Conditions: MV411, 6 days. On the procedure: as §1, §2, §3, §4, §5
In another data set the test system is KG-1 cells. As to the kind of experiment: Sulphorhodamine B (SRB) assay, KG-1. The format is cell-based. The following applies: KG-1, 6 days. On the procedure:
as §1, §2, §3, §4, §5

For the next data set, the system named is Jurkat cells. As to the kind of experiment: Sulphorhodamine B (SRB) assay, Jurkat. Conditions: 6 days. The format is cell-based. On the procedure: as §1, §2, §3, §4, §5
The subject of a further data set is HL-60 cells. As to the kind of experiment: Sulphorhodamine B (SRB) assay, HL-60. Conditions: HL-60, 6 days. The format is cell-based. On the procedure:
as §1, §2, §3, §4, §5

For another data set, the system named is MV4-11 (AML) cells. As to the kind of experiment: SRB assay, paediatric cancer cell line MV4-11. The format is cell-based. Conditions: MV4-11, acute myelogenous leukaemia (AML); 6-day SRB; average of at least two experiments. On the procedure:
(§6) Cells were typically seeded in wells of a 96-well plate as follows for each cell line:
(§7) AS1411 (G rich oligonucleotide of sequence ID No. 1) was added at a concentration selected from 0, 0.1, 1, 5 or 20 µM and cells were incubated for 6 days
(§8) Cells were then washed, fixed to the 96-well plate and exposed to the dye Sulphorhodamine B (SRB; available from Sigma-Aldrich, Dorset, UK; catalogue number S-1402. The optical density of the remaining cell mass after exposure to AS1411 was measured in a microplate spectrophotometer and IC50 determined. For the time course experiments, AS1411 was washed off cells at the stated time-point, and then fresh medium applied to the cells which were left to grow for the full 6 days of the assay.
as §4

The subject of another data set is SK-N-AS (neuroblastoma). As to the kind of experiment: SRB assay, paediatric cancer cell line SK-N-AS. The format is cell-based. The following applies: 6-day SRB, average of at least two experiments. On the procedure: as §6, §7, §8, §4
For the next data set, the system named is nucleolin. As to the kind of experiment: Western blot analysis, nucleolin. The format is cell-based. Conditions: cells incubated with AS1411 for 4 days; whole cell lysate. On the procedure: (§9) Cells were incubated with AS1411 for 4 days, after which cell lysates were analysed by non-reducing SDS-PAGE analysis using 4-12% NuPAGE Bis-Tris Gels (Invitrogen).
(§10) 10 μg of total protein (whole cell lysate) was loaded per well as assessed by the Lowry assay (Lowry reagent available from Sigma-Aldrich, catalogue number L3540) and detected using ECL Advance western blotting kit (GE Healthcare).
(§11) Anti-nucleolin and bax antibodies were obtained from Santa Cruz and the β-actin antibody from QED.

A further data set has as its system A204 (rhabdomyosarcoma). As to the kind of experiment: SRB assay, paediatric cancer cell line A204. The format is cell-based. Conditions: 6-day SRB, average of at least two experiments. The procedure: as §6, §7, §8, §4
The test system of another data set is SUP-B15 (ALL) cells. As to the kind of experiment: SRB assay, paediatric cancer cell line SUP-B15. The format is cell-based. The following applies: SUP-B15, acute lymphoblastic leukaemia (ALL); 6-day SRB; average of at least two experiments. On the procedure: as §6, §7, §8, §4
Another data set has as its system R-1059-D (osteosarcoma). As to the kind of experiment: SRB assay, paediatric cancer cell line R-1059-D. The format is cell-based. Conditions: 6-day SRB, average of at least two experiments. The procedure: as §6, §7, §8, §4
A further data set relates to Bax protein. As to the kind of experiment: Western blot analysis, Bax. The format is cell-based. The following applies: cells incubated with AS1411 for 4 days; whole cell lysate; both cell lines; normalised to β-actin. The procedure: as §9, §10, §11
For orientation: In western blotting, separated proteins are transferred to a membrane and probed.

[1] abbreviates: Homo sapiens, 144 h, IC50 as doxorubicin concentration, alone or with fixed AS1411.
Where [2] appears, read: Homo sapiens, 144 h, 6 days, SRB, IC50 as doxorubicin concentration, alone or with fixed AS1411, read-out: Mean IC50.
[3] abbreviates: Homo sapiens, doxorubicin alone, read-out: Doxorubicin IC50, Alone.
The mark [4] stands for this setting: Homo sapiens, in combination with 2.5 μM AS1411, read-out: Doxorubicin IC50, In combination with 2.5 μM AS1411.
The mark [5] stands for this setting: doxorubicin IC50 alone vs in combination with 2.5 μM AS1411.
Setting [6] is: 6 days, SRB, AS1411 without doxorubicin, read-out: Mean IC50.

Entries after “also recorded” stand apart in the source; their conditions may differ. Like-named read-outs stand apart in the source and are kept apart here.

With `COc1cccc2c1C(=O)c1c(O)c3c(c(O)c1C2=O)C[C@@](O)(C(=O)CO)C[C@@H]3O[C@@H]1CC(N)[C@@H](O)C(C)O1` (stereo partly drawn) [Doxorubicin, (8S,10S)-10-(4-amino-5-hydroxy-6-methyl-tetrahydro-2H-pyran-2-yloxy)-6,8,11-trihydroxy-8-(2-hydroxyacetyl)-1-methoxy-7,8,9,10-tetrahydrotetracene-5,12-dione], the IC50 (as a rule, the concentration needed to halve the response being measured) in the data set with K562 cells (setting [1]) was 1260 nM; with Raji cells (setting [2]), 746 nM; in the data set with Raji cells (setting [3]), 746 nM; with Raji cells (setting [4]), 327 nM; in the data set on Namalwa cells (Homo sapiens, 144 h, Namalwa, 6 days, SRB, IC50 as doxorubicin concentration, alone or with fixed AS1411, read-out: Mean IC50), 69.7 nM; in the data set with Namalwa cells (Homo sapiens, NAMALWA, doxorubicin alone, read-out: Doxorubicin IC50, Alone), 69.7 nM. Further, the IC50 was 17.2 nM in the data set on Namalwa cells (Homo sapiens, NAMALWA, in combination with 2.5 μM AS1411, read-out: Doxorubicin IC50, In combination with 2.5 μM AS1411); 220 nM in the data set on Daudi cells (setting [2]); 220 nM in the data set with Daudi cells (setting [3]); 57.2 nM with Daudi cells (setting [4]); 75.9 nM in the data set with MV411 cells (Homo sapiens, MV4-11, 144 h, IC50 as doxorubicin concentration, alone or with fixed AS1411); 4860 nM with KG-1 cells (setting [1]). Further, the IC50 in the data set on Jurkat cells (Homo sapiens, 144 h, n=1, IC50 as doxorubicin concentration, alone or with fixed AS1411) was found to be 426 nM; in the data set with HL-60 cells (setting [1]) it was 639 nM. Moreover, the “Fold increase in potency” value in the data set with Raji cells (setting [5]) worked out at 2.3 fold; in the data set on Namalwa cells (NAMALWA, doxorubicin IC50 alone vs in combination with 2.5 μM AS1411), 4.1 fold; in the data set with Daudi cells (setting [5]) it was 3.8 fold.

As for “AS1411: G-rich oligonucleotide, SEQ ID No: 1, 5′-GGTGGTGGTGGTTGTGGTGGTGGTGG-3′”, the concentration for half-maximal inhibition (IC50) in the data set with K562 cells (AS1411 without doxorubicin) stood at 7030 nM; with MV4-11 (AML) cells, 2.1 nM; in the data set with Raji cells (setting [6]) it was 4940 nM; with Namalwa cells (Namalwa, 6 days, SRB, AS1411 without doxorubicin, read-out: Mean IC50), 3200 nM; in the data set with Daudi cells (setting [6]), 9350 nM; with MV411 cells (AS1411 without doxorubicin), 2360 nM. Moreover, the IC50 was determined as 3.2 nM in the data set on SK-N-AS (neuroblastoma); 2320 nM with KG-1 cells (AS1411 without doxorubicin); 2.6 nM with A204 (rhabdomyosarcoma); 1130 nM with Jurkat cells (n=1, AS1411 without doxorubicin); 2.3 nM with SUP-B15 (ALL) cells; 2620 nM in the data set on HL-60 cells (AS1411 without doxorubicin). Further, 4.7 nM corresponded to half-maximal inhibition in the data set with R-1059-D (osteosarcoma) (IC50). For the same compound, in the data set with nucleolin, the “total cell lysate nucleolin levels (Western blot)” value was “no effect”. Moreover, the “Bax protein level (Western blot)” value in the data set with Bax protein was “increased levels; also recorded: Up-regulation”.
